Source: PMC11965660, “Isobavachalcone ameliorates Alzheimer disease pathology by autophagy-mediated clearance of amyloid beta and inhibition of NLRP3 inflammasome in primary astrocytes and 5x-FAD mice” (Frontiers in Pharmacology, 2025)
“Also recorded” adds a separate entry of the source. Read-outs that look alike come from different tables or passages of the source.

Legend:
[1] = Pharmacokinetic analysis in plasma and brain; assay type: in vivo; conditions: C57BL/6J mice
Description: C57BL/6J (Jax:000664) male mice were used for pharmacokinetic analysis of IBC. Mice were randomly sorted into 9 groups (n = 5). 30 mg/kg oral dose of IBC (1% DMSO +70% PEG-200 + 29% water) was given to mice. Blood or brain samples were collected at 0, 0.25, 0.5, 1, 2, 4, 6, 8 and 24 h. The plasma (100 µL) sample was processed with ethyl acetate (200 µL) containing IS (150 ng/mL) and centrifuged at 300 g for 10 min. The organic layer was separated and dried in a vacuum, reconstituted with acetonitrile, and analyzed by LC-MS/MS [SRM transition of IBC and IS (Phenacetin) is 325.2 & gt; 149.0 and 180.2 & gt; 110.2 in Positive mode]. Brain homogenate was prepared using the weighted amount of brain tissue in water at the concentration level of 350 mg/mL and processed similarly to plasma samples.

IL-1β = IL-1β in mice cortex by ELISA; assay type: in vivo, 5x-FAD mice; conditions: 25 and 50 mg/kg, vs 5x-FAD control
From the text: After the termination of experiments, the supernatant was collected and analyzed for levels of cytokines. For measuring IL-1β and IL-18, supernatant collected after NLRP3 inflammasome activation as mentioned above, was subjected to ELISA. For detection of IL-1β in mice cortex, mice cortices were isolated and homogenized in RIPA buffer to measure IL-1β in homogenates. The manufacturer’s protocol was followed for measuring the cytokines. The levels of measured cytokines were normalized with the total protein content of the cells. For total protein content of cell pellet lysed with lysis buffer (0.2 N NaCl and 1% Triton-X 100) was measured.
(§1) Hemizygous 5x-FAD transgenic mice (B6.Cg-Tg(APPSwFlLon, PSEN1*M146L*L286V) 6799Vas/Mmjax; MMRRC Strain: 034848-JAX) on congenic C57BL/6J genetic background were used for experiments. The 5x-FAD mice were genotyped using APP-specific qPCR probes to detect the transgene as per the protocol of Jackson Laboratory. Six months old 5x-FAD mice were randomly divided into three groups (n = 5), based on their body weights, with three males and two females in each group. We used mixed-cohort of males and females for our study to exclude any gender biased effect of IBC. Also, AD symptoms are more pronounced in females than in males ([Aggarwal and Mielke, 2023]), making it possible that males and females respond differently to the drug and treatment. […]

Aβ plaques = experiment: Immunohistochemistry of Aβ in hippocampus; assay type: in vivo, 5x-FAD mice; conditions: for average number of Aβ plaques: 5x-FAD mice
From the text: Hemizygous 5x-FAD transgenic mice (B6.Cg-Tg(APPSwFlLon, PSEN1*M146L*L286V) 6799Vas/Mmjax; MMRRC Strain: 034848-JAX) on congenic C57BL/6J genetic background were used for experiments. The 5x-FAD mice were genotyped using APP-specific qPCR probes to detect the transgene as per the protocol of Jackson Laboratory. Six months old 5x-FAD mice were randomly divided into three groups (n = 5), based on their body weights, with three males and two females in each group. We used mixed-cohort of males and females for our study to exclude any gender biased effect of IBC. Also, AD symptoms are more pronounced in females than in males ([Aggarwal and Mielke, 2023]), making it possible that males and females respond differently to the drug and treatment. Considering this, it is important to show effect of IBC on both sexes. At this age, Aβ deposition and neuroinflammation has already progressed in these mice. We have used IBC as a curative drug rather than a preventive drug. Prior to the initiation of the study, all the animals were acclimatized for 1 week under standard laboratory conditions; animals were drug naive with no prior procedures performed. All testing were performed from 1 to 4 p.m. IBC was orally (OD) given to two groups at different doses, 25 mg/kg (1% DMSO, 2% Tween 80, 19% PEG200, and 78% distilled water) and 50 mg/kg (1% DMSO, 5% Tween 80, 19% PEG200% and 75% distilled water) using oral gavage. 5x-FAD control mice were administered with vehicle (1% DMSO, 5% Tween 80, 19% PEG200% and 75% distilled water). For behavioral and Immunohistochemistry assays, experimenters were blinded to animal identity while carrying out the procedures.
Mice’s hippocampus tissue was fixed in 10% formalin. Dehydrated tissue slices were made and placed on slides. For analysis, tissue was rehydrated following subsequent incubation in xylene, xylene: ethanol, 100% ethanol, 90% ethanol, 70% and 50% ethanol. After tissue rehydration, cells were permeabilized using 0.4% Triton-X100 for 10 min. […] Images were taken in a CQ1 high throughput imaging system and analyzed using cell pathfinder software.

5x-FAD mice = experiment: Rotarod test; assay type: in vivo
From the text: as §1
To check the effect of IBC on the behavior of 5x-FAD mice, open field test (OFT), rotarod (Make; Ugo Basile, rota-rod for mice 7650) and radial arm maze (Make; Ugo Basile) tests were performed. […] After acclimatizing mice with rotarod for 5 days, their latency to fall was calculated on the day of analysis. […] Distance traveled, speed, time spent in corner and center zones and mobile episodes were recorded through an automated video tracking system using AnyMaze software. […] The movement of mice was tracked with the help of automated AnyMaze software connected with a tracking camera and various memory retention parameters were assessed.

Aβ42 = experiment: Aβ clearance assay in primary astrocytes; assay type: cell-based, C57BL/6J mice
Description: Aβ42-HiLyte fluor488 peptide was prepared following the manufacturer’s protocol (Anaspec Inc.). Primary astrocytes seeded on coverslips were treated with IBC (10 μM) or rapamycin (24 h). After 12 h, 2 μg/ml fluorochrome tagged (Hilyte fluor488) Aβ42 protein was added to cells for another 12 h. Bafilomycin A1 was given 3 h prior to experiment termination. After the end of the assay, cells were washed with PBS and cells were fixed with 4% PFA, permeabilized with Triton-X 100, and the nucleus was stained with DAPI, as mentioned above. Similarly, slides were prepared, and images were taken and analyzed in the CQ1 high throughput imaging system.
AMPK expression was knocked down from the cells by using siRNA against AMPK using FuGENE HD for 24 h. Primary astrocytes seeded in 6 well plates were incubated in OPTI-MEM media for 30 min prior to transfection. The transfection mixture was prepared and kept in sterile condition for 20 min before being added to the cells. Following this, cells were treated for NLRP3 inflammasome activation as described above.

[2] = male, mouse, blood plasma, 30 mg/kg oral
[3] = male, mouse, brain, 30 mg/kg oral

CC(C)=CCc1c(O)ccc(C(=O)/C=C/c2ccc(O)cc2)c1O [IBC, isobavachalcone]
Cl ([1]; blood plasma, 30 mg/kg oral): 50 ± 7 L/h/kg | Vd ([1]; blood plasma, 30 mg/kg oral): 355 ± 81 L/kg | AUC0-t ([1]; brain, 30 mg/kg oral): 72 ± 7 ng·h/g | AUC0-∞ ([1]; brain, 30 mg/kg oral): 79 ± 7 ng·h/g | Kp ([1]; male, mouse, brain and plasma, 30 mg/kg oral, read-out: brain-to-plasma ratio): 0.12 to 0.16 | AUC(0-inf) [1, 2]: 637 ± 74 ng·h/mL | Cmax [1, 2]: 208 ± 46 ng/mL | Tmax [1, 2]: 36 ± 6 min | half-life [1, 2]: 336 ± 90 min | AUC0-t ([1]; male, mouse, blood plasma, 30 mg/kg oral, read-out: AUC0-t): 548 ± 59 ng·h/mL | Cmax [1, 3]: 34 ± 4 ng/g | Tmax [1, 3]: 36 ± 6 min | half-life [1, 3]: 108 ± 24 min | blood-brain barrier penetration ([1]; single dose 30 mg/kg p.o., 30 mg/kg): low penetration; also recorded: low brain availability | IL-1β level in cortex (IL-1β): highly significant decline | average number of Aβ plaques (Aβ plaques; 25 mg/kg oral 2 months): 21 | average number of Aβ plaques (Aβ plaques; 50 mg/kg oral 2 months): 15 | total Aβ fluorescence intensity (Aβ plaques; 25 and 50 mg/kg, vs 5x-FAD control): highly significant decline | latency to fall from rotarod (5x-FAD mice; 25 mg/kg oral): 92 s | latency to fall from rotarod (5x-FAD mice; 50 mg/kg oral): 118 s | intracellular Aβ level (Aβ42; 10 μM with bafilomycin A1): increased | effect on clearance of Aβ (Aβ42; 10 μM with siAMPK): complete reversal | intracellular Aβ42-HiLyte fluor488 fluorescence (Aβ42; 10 μM, 24 h, vs cells with Aβ alone): significantly low fluorescence
